Experiments:
Assay type in all cases: in vivo
[1] = test system: cuttings from mature Eucalyptus grandis trees; assay: rooting of cuttings from mature Eucalyptus grandis trees; conditions: for rooting percentage of eucalyptus cuttings: Example 12: 6000 ppm IBA potassium salt and 50 μM conjugate dip 1 minute, leaves sprayed with 50 μM; for rooting compared with Compound 1a (4-CPA-ethanolamine), in words: 100 μM, submerging and/or spraying, with or without 6000 ppm IBA
Experimental: Eight-year-old Eucalyptus grandis plants were grown from seeds and placed in a net house in 20 liter pots containing peat and tuff (70:30, v/v), drip irrigated and fertilized with 3 liters of Shefer™ 737 liquid fertilizer (ICL Fertilizers, Israel) per cubic meter of water. Cuttings were collected from branches which grew 2-2.5 meters above the ground. Cuttings were 2-3 mm thick branches, 15 cm long, with 1-2 pairs of leaves. The leaf blades were cut in half to decrease transpiration. Cuttings were treated with 6000 ppm IBA (potassium indole-3-butyric acid) for 1 minute with or without 100 μM of each tested compound. The tested compounds were either applied to the base of the cutting, with or without IBA and/or sprayed on the foliage in the presence of 0.05% Triton™ X-100 surfactant. Cuttings were rooted in rooting tables heated to 25° C. under constant 90% humidity, in a controlled-climate greenhouse. The rooting medium contained crushed polystyrene foam: vermiculite no. 3: pit (3:2:1, v/v/v). Rooting was recorded after 30-60 days. Roots system architecture was analyzed by WinRHIZO™ system scanner and software.
Exemplary conjugates prepared as described in Example 1 were tested for their ability to promote adventitious root (AR) formation in cuttings from mature eucalyptus (Eucalyptus grandis) trees. In this model, AR formation is difficult to induce, with 5-15% root development in the presence of IBA potassium salt [Abu-Abied et al., Plant J 2012, 71:787-799], such that effective AR formation indicates a potent root formation activity.
Various concentrations and mode of applications were tested for each compound in the presence or absence of IBA (the “gold standard” rooting enhancer). A concentration of 100 μM of each conjugate was used for an initial screen of 37 conjugates, in which the compounds were applied to the base of the cutting by dipping (submerging the cutting base in a solution of the conjugate for one minute) or to the foliage by spraying. After 45 days, the cuttings were scored for the presence of callus or roots.
Conjugates prepared as described herein were evaluated in a Eucalyptus grandis rooting model, according to procedures such as described hereinabove. The bases of cuttings (a 12-15 cm long branch with the two upper leaves, whose blades were cut in half) were dipped in a solution containing 6000 ppm IBA potassium salt and 50 μM of conjugate for 1 minute, and the leaves were sprayed with 50 μM of the same conjugate (mixed with 0.5% Triton™ X-100 surfactant). The cuttings were imbedded in a heated (25° C.) rooting table containing a 1:2:3 ratio of peat:vermiculite:polystyrene, under 90% relative humidity.

mung bean cuttings = assay: rooting of mung bean cuttings (number of adventitious roots per cutting); conditions: for effect on AR formation in mung bean cuttings, in words: tested at 2, 10 or 50 μM
Experimental: Mung bean cuttings have been used for many years as a model for assessing the effect of plant hormones and synthetic chemicals on the rooting process. In the present study, this system was used to ascertain activity of conjugates in inducing adventitious root (AR) formation, and to evaluate the rate of conjugate hydrolysis that releases the free active auxin. […] The rooting activity in this system is determined by the number of adventitious roots per cutting.
The mung bean model was used to examine the activity of conjugates of three phenoxy acids, 4-CPA, MCPA, and 2-DP, on rooting. For comparison, plants were treated with (unconjugated) IBA or with 2-DP conjugated to glycine methyl ester (Gly-ME).

[2] = test system: cuttings from mature Eucalyptus grandis trees; assay: rooting of cuttings from mature Eucalyptus grandis trees; conditions: 100 μM compound by submerging or spraying, with 6000 ppm IBA
[3] = test system: avocado rootstock cuttings; assay: rooting of avocado rootstock cuttings; conditions: vc51 rootstock, IBA with compound; for rooting success rate of green avocado branches, in words: compared with IBA alone
Source text: Avocado rootstock is extremely difficult to root. Currently, the common technique for propagating clones of avocado rootstock is to graft the desired rootstock on a seedling, and transfer to the dark to generate an etiolated branch. This branch can be rooted and grafted with the desired variety while still grafted on the seed [Frolich & Platt, California Avocado Society 1971-72 Yearbook 1972, 55:97-109]. However, the preparation of such twice-grafted seedlings is time-consuming and expensive.
The ability of exemplary conjugates to promote rooting in green avocado cuttings (in the presence of IBA) was therefore examined. In particular, Compounds 2h (MCPA-methanol), 4b (NAA-β-alanine methyl ester), 3g (2-DP-methyl-4-aminobenzoate), 3f (2-DP-p-toluidine), 1l (4-CPA-morpholine) and is (4-CPA-D-Trp) were tested.
Exemplary conjugates were also tested for rooting the hard-to-root species of avocado (VC801 rootstock) and argan, according to procedures described hereinabove.

Arabidopsis seedlings = assay: root elongation inhibition in Arabidopsis seedlings; conditions: 50 nM, after 5 days
Experimental: Adventitious roots (ARs) were induced in intact plants, using previously described procedures [Gutierrez et al., Plant Cell 2009, 21:3119-3132; Abu-Abied et al., Plant J 2012, 71:787-799; Rasmussen et al., Plant Physiol 2012, 158:1976-1987]. Briefly, seeds were germinated on MS/0.8% agar plates supplemented with 3% sucrose. The plates were kept in the dark for 2 days at 4° C., then 5 days at 22° C. in the dark, 2 days in the light, 3 days in the dark and then additional 4 days in the light to complete 2 weeks when roots were counted using a stereoscope. Sensitivity to auxin and/or auxin analogs was determined by following root elongation on vertical plates. The 4-day-old seedlings were transferred to MS plates containing 0.05 or 0.5 μM IAA and the root length was measured after 5 days, including the number of LRs in each root and calculation of the LR density. Each treatment experiment included 10-15 plants and was repeated 3 times.
A common technique for evaluating auxin activity is by determining the ability of a compound to inhibit root elongation [Zolman et al., Genetics 2000, 156:1323-1337]. In order to use this assay for comparing auxin activities of different conjugates, the minimum concentration of free 4-CPA that is active in the root elongation inhibition assay was determined. Four days old seedlings were placed in vertical plates containing increasing concentrations of 4-CPA. The root lengths were marked daily during 5 days.
Based on the above results, the effect of conjugates of 4-CPA (Compounds 1o-1t) on root elongation after 5 days was determined at concentrations of 50 nM.

[4] = test system: Pinus halepensis cuttings; assay: rooting and root development in pine cuttings; conditions: 400 ppm IBA potassium salt + 5 ppm conjugate, 4 hours dip; 12 weeks
Experimental: The effects of exemplary D-amino acid conjugates of 4-CPA (Compounds to and Is) on rooting in Pinus halepensis cuttings were compared with those of 2-DP-glycine methyl ester conjugate (2-DP-Gly). Rooting mature pine cuttings (i.e., cuttings that are taken from trees more than 4 years old) is very difficult.
Apical cuttings were taken from 7-year-old trees, stored for 4 weeks at 4° C., and treated by dipping the cutting bases for 4 hours in the following solution: 400 ppm IBA potassium salt+5 ppm tested conjugate+0.1% Amistar™ fungicide (250 grams/liter azoxystrobin). The cuttings were evaluated after 12 weeks.

[5] = Table 1, 10 μM, water control 29.6
[6] = Table 1, 50 μM, water control 29.6

`COC(=O)[C@@H](CC(C)C)NC(=O)COc1ccc(Cl)cc1` [4-CPA-D-Leu-methyl ester] was tested, and the “rooting percentage of eucalyptus cuttings” value [1] was 5%.

For `COC(=O)[C@H]1CCCN1C(=O)COc1ccc(Cl)cc1` [4-CPA-D-Pro-methyl ester], the “rooting percentage of eucalyptus cuttings” value [1] was 10%.

For `COC(=O)CCNC(=O)COc1ccc(Cl)cc1` [Compound 1b, 4-CPA-β-alanine methyl ester], the “rooting of mung bean cuttings (number of roots per cutting)” value (shortened to “rooting … (number of roots per cutting)”) (mung bean cuttings; [5]) was 0, the “rooting … (number of roots per cutting)” value (mung bean cuttings; [6]) was 0 and the “rooting in combination with IBA compared with IBA alone, in words” value (“rooting … compared with IBA alone, in words” for short) [2] was “enhanced rooting in comparison with IBA alone”.

`Cc1ccc(NC(=O)COc2ccc(Cl)cc2)cc1` [Compound 1f, 4-CPA-p-toluidine] was tested, and the “rooting … (number of roots per cutting)” value (mung bean cuttings; [5]) was 0, the “rooting … (number of roots per cutting)” value (mung bean cuttings; [6]) was 0 and the “rooting … compared with IBA alone, in words” value [2] was “enhanced rooting in comparison with IBA alone”.

For `COC(=O)c1ccc(NC(=O)COc2ccc(Cl)cc2)cc1` [Compound 1g, 4-CPA-methyl-4-aminobenzoate], the “rooting … (number of roots per cutting)” value (mung bean cuttings; [5]) was 0, the “rooting … (number of roots per cutting)” value (mung bean cuttings; [6]) was 0 and the “rooting … compared with IBA alone, in words” value [2] was “enhanced rooting in comparison with IBA alone”.

In the case of `CCC(C)NC(=O)COc1ccc(Cl)cc1` (stereo not drawn) [Compound 1i], the “rooting … (number of roots per cutting)” value (mung bean cuttings; Table 2, 2 μM) is reported as 23, the “rooting … (number of roots per cutting)” value (mung bean cuttings; Table 2, 10 μM) is reported as 25 and the “rooting … (number of roots per cutting)” value (mung bean cuttings; Table 2, 50 μM) is reported as 0. For the same molecule, the “rooting compared with Compound 1a (4-CPA-ethanolamine), in words” value (from here on “rooting compared with Compound 1a”) [1] was “not more effective at inducing rooting”.

With `CCCCNC(=O)COc1ccc(Cl)cc1` [Compound 1j] the “rooting … (number of roots per cutting)” value (mung bean cuttings; Table 2, 2 μM) was 22, the “rooting … (number of roots per cutting)” value (mung bean cuttings; Table 2, 10 μM) was 0 and the “rooting … (number of roots per cutting)” value (mung bean cuttings; Table 2, 50 μM) was 0. The “rooting compared with Compound 1a” value [1] was “not more effective at inducing rooting”.

With `O=C(COc1ccc(Cl)cc1)N1CCCCC1` [Compound 1k] the “rooting … (number of roots per cutting)” value (mung bean cuttings; Table 2, 2 μM) was 25, the “rooting … (number of roots per cutting)” value (mung bean cuttings; Table 2, 10 μM) was 34 and the “rooting … (number of roots per cutting)” value (mung bean cuttings; Table 2, 50 μM) was 0. For the same molecule, the “rooting compared with Compound 1a” value [1] was “not more effective at inducing rooting”.

In the case of `O=C(COc1ccc(Cl)cc1)N1CCOCC1` [Compound 1l, 4-CPA-morpholine], the “rooting … (number of roots per cutting)” value (mung bean cuttings; Table 2, 2 μM) is reported as 23, the “rooting … (number of roots per cutting)” value (mung bean cuttings; Table 2, 10 μM) is reported as 0 and the “rooting … (number of roots per cutting)” value (mung bean cuttings; Table 2, 50 μM) is reported as 0. For the same molecule, the “rooting compared with Compound 1a” value [1] was “not more effective at inducing rooting”, the “roots per cutting of green avocado branches compared with etiolated branches treated with IBA, in words” value [3] was “considerably more roots per cutting” and the “rooting success rate of green avocado branches, in words” value (“rooting success rate” below) [3] was “considerably enhanced the rooting success rate”.

`O=C(COc1ccc(Cl)cc1)N(CCO)CCO` [Compound 1m] was tested, and the “rooting compared with Compound 1a” value [1] was “not more effective at inducing rooting”.

In the case of `CN(CCO)C(=O)COc1ccc(Cl)cc1` [Compound 1n], the “rooting … (number of roots per cutting)” value (mung bean cuttings; Table 2, 2 μM) is reported as 16, the “rooting … (number of roots per cutting)” value (mung bean cuttings; Table 2, 10 μM) is reported as 24 and the “rooting … (number of roots per cutting)” value (mung bean cuttings; Table 2, 50 μM) is reported as 35. For the same molecule, the “effect on AR formation in mung bean cuttings, in words” value (shortened to “effect on AR formation”) (mung bean cuttings) was “moderate rooting activity at 50 μM” and the “rooting compared with Compound 1a” value [1] was “not more effective at inducing rooting”.

With `COC(=O)C[C@@H](NC(=O)COc1ccc(Cl)cc1)C(=O)OC` [Compound 1q, 4-CPA-D-Asp-methyl diester] the “rooting … (number of roots per cutting)” value (mung bean cuttings; Table 2, 2 μM) was 67, the “rooting … (number of roots per cutting)” value (mung bean cuttings; Table 2, 10 μM) was 0 and the “rooting … (number of roots per cutting)” value (mung bean cuttings; Table 2, 50 μM) was 0. For the same molecule, the “effect on root elongation relative to control, in words” value (Arabidopsis seedlings) was “did not affect root elongation”.

In the case of `COC(=O)CNC(=O)C(C)Oc1ccc(Cl)cc1Cl` (stereo not drawn) [Compound 2-DP-Gly, reference compound], the “rooting … (number of roots per cutting)” value (mung bean cuttings; [6]) is reported as 97.2, the “effect on AR formation” value (mung bean cuttings) is reported as “positively correlated to dose” and the “Degree of root development Medium (%)” value [4] is reported as 6.6%. For the same molecule, the “Degree of root development Weak (%)” value [4] was 46.7%, the “Degree of root development Well-developed (%)” value [4] was 46.7% and the “Rooting rate (%)” value [4] was 87.5%.

`COC(=O)COc1ccc(Cl)cc1C` [Compound 2h, MCPA-methanol] was tested, and the “roots per cutting of green avocado branches compared with etiolated branches treated with IBA, in words” value [3] was “considerably more roots per cutting” and the “rooting success rate” value [3] was “considerably enhanced the rooting success rate”.

With `COC(=O)c1ccc(NC(=O)C(C)Oc2ccc(Cl)cc2Cl)cc1` (stereo not drawn) [Compound 3g, 2-DP-methyl-4-aminobenzoate] the “rooting … (number of roots per cutting)” value (mung bean cuttings; [5]) was 46.2, the “rooting … (number of roots per cutting)” value (mung bean cuttings; [6]) was 46.4 and the “roots per cutting of green avocado branches compared with etiolated branches treated with IBA, in words” value [3] was “considerably more roots per cutting”. For the same molecule, the “rooting success rate” value [3] was “considerably enhanced the rooting success rate”.

In the case of `COC(=O)C(C)Oc1ccc(Cl)cc1Cl` (stereo not drawn) [Compound 3h, 2-DP-methanol], the “rooting … compared with IBA alone, in words” value [2] is reported as “enhanced rooting in comparison with IBA alone”.

In the case of `COC(=O)CNC(=O)COc1ccc(Cl)cc1` [Compound 4-CPA-Gly, 4-CPA-Gly-methyl ester], the “appearance of the base of mung bean cuttings” value (mung bean cuttings; FIGS. 4A, 4B) is reported as “appeared swollen, but no AR developed”, the “effect on AR formation” value (mung bean cuttings) is reported as “induced a similar rooting rate only at the lowest tested concentration of 2 μM” and the “rooting … compared with IBA alone, in words” value [2] is reported as “exhibited lower rooting activity than the other conjugates”.

In the case of `COC(=O)CCNC(=O)Cc1cccc2ccccc12` [Compound 4b, NAA-β-alanine methyl ester], the “roots per cutting of green avocado branches compared with etiolated branches treated with IBA, in words” value [3] is reported as “considerably more roots per cutting” and the “rooting success rate” value [3] is reported as “considerably enhanced the rooting success rate”.
